Experiments:
Assay type in all cases: cell-based, human
[1] = test system: MMA Patient fibroblasts (GM01673, Coriell Institute for Medical Research); assay: Mitochondrial fusion and networking (high-content imaging); parameters: key: Mitochondrial elongation and networking was described as slight, mild or good; Mitochondrial elongation and networking was described as slight, mild or good; Mitochondrial elongation and networking was described as slight, mild or good; settings: 10 μM compound, 2 hours, compared to vehicle control
Description: (§1) Cells were seeded in 96-well plates (density 3000 cells/well) in culture minimum MEM (GIBCO, 10370-021) supplemented with 2 mM L-Glutamine (Thermo Fisher Scientific), 15% FBS (Thermo Fisher Scientific 26400044) and 1% penicillin/streptomycin. Cells were incubated for 48 hours (37° C, 5% CO2), then treated with 10 μM compounds from the present disclosure, 1% DMSO (vehicle) or 5 μM FCCP (control) for 2 hours in fasted conditional medium: Agilent XF DMEM (Agilent 103575-100), pH 7.4 supplemented with 10% FBS (Thermo Fisher Scientific 26400044), 0.03% penicillin/streptomycin 1 mM glucose, 2 mM L-glutamine and 1 mM pyruvate.
(§2) After treatment, media was removed, and cells were stained with 100 μl of 1×mixture dye solution of 1 μg/mL JC-1 (Invitrogen Cat #T3168) and 50 ng/ml MitoTracker deep red (Invitrogen Cat #M22426) at 37° C. for 30 minutes. Next, staining was removed, the cells were washed once with 150 μl PBS, and 150 μl of fasted conditional medium (described above) is added to each well. Analysis was carried out on live cells using a Thermo Scientific CellInsight CX7 LZR High-Content Screening Platform. Mitochondrial elongation and networking was described as slight, mild or good.

[2] = test system: PA Patient fibroblasts (Tsi 3618 Trans-Hit Bio); assay: as above; parameters: key: Mitochondrial elongation and networking was described as slight, mild or good; Mitochondrial elongation and networking was described as slight, mild or good; Mitochondrial elongation and networking was described as slight, mild or good; settings: 10 μM compound, 2 hours, compared to vehicle control
Description: as §1, §2

[3] = test system: Methylmalonic Acidemia (MMA) Primary fibroblasts (GM01673, Coriell Institute for Medical Research); assay: Measurement of total GSH and GSSG dimer (GSH/GSSG ratio); settings: 10 μM compound for 2 hours
Description: Primary adherent fibroblasts were cultured in minimum essential medium (MEM) (Gibco, 25030081) supplemented with 2 mM L-Glutamine (Gibco, 25030081), 15% fetal bovine serum (FBS) (Gibco, 26400044) and 1% penicillin/streptomycin (Gibco, 5140122) at 37° C. and 5% CO2. Cells were collected for either passaging or experiment at ˜70-80% confluence. Cells were obtained by trypsinization and seeded in a white cell culture microplates (Thermo Fisher Scientific, 152028) for luminescent measurement. Cells were obtained by trypsinization and […] were seeded and allowed to adhere for 16-18 hours to have confluency around 70-80% in the cell well with culture media. After 24 hours prior to measurements (37° C, 5% CO2) media was changed to Dulbecco's Modified Eagle Medium (DMEM, Agilent Seahorse cat #103575-100) with the appropriate supplements (1 mM glucose, 2 mM L-glutamine, 1 mM pyruvate, 10% FBS).
Assay was performed according to manufacturer instructions (Promega, V6612). At the end of appropriate time point, the assay requires one plate for total measurement of GSH and one plate for GSSG. For every assay a 11-point standard curve is prepared ranging from 8 μM to 0.013 μM. […] Finally, 100 μl/well of Luciferin Detection reagent were added and incubated for 15 minutes before the chemiluminescence was detected. Free GSH/GSSG ratio was calculated as (Total GSH-GSSH)/(GSSG/2). […]

[4] = test system: CD14+ monocytes differentiated to M1 macrophages; assay: M1 differentiation assay (IL6 by ELISA); settings: 10 μM compound
Description: Monocytes were isolated by positive isolation with CD14+ microbeads (Miltenyi, 130-050-201). Monocytes were 99% viable and were 96% purity as analyzed by FACS and CD14+ (BD, 563561). 100,000 monocytes along with compounds at the dose of 10 and 50 μM were allowed to differentiate to macrophages with 10 ng/ml GMCSF (R&D, 15-GM-050/CF) in RPMI complete media (Invitrogen, 22400089) with 15% FBS (Hyclone SV30087.03) and 1% Penicillin-Streptomycin (Gibco, 15140-122). On day 2 and 4 half the media was refreshed with fresh GM-CSF and compounds at 10 and 50 μM dose. On day 6 the macrophages were matured with GMCSF, IFNγ (R&D 285-IF-100/CF) and LPS (Sigma, L6143) in the presence of 10 μM and 50 μM of compounds. After 24 h, supernatant was collected for the measurement of TNFα (DKW, 1117202) IL6 (DKW, 1110602), IL10 (DKW, 1110003) by ELISA. Macrophages were detached gently on ice with EDTA (Invitrogen, 15575-038) and analyzed by FACS (BD LSR Fortessa, 853492). […]

Structure (SMILES): CC1(C)COC(=O)CCC(=O)SCCNC(=O)CCNC(=O)[C@@H]1O [Compound 206, (R)-15-hydroxy-16,16-dimethyl-1-oxa-6-thia-9,13-diazacycloheptadecane-2,5,10,14-tetraone]
- mitochondrial elongation and networking [1]: good
- mitochondrial elongation and networking [2]: mild
- increase of the GSH/GSSG ratio [3]: at least 20%
- decrease of levels of IL-6 protein [4]: at least 40%
